Like-named read-outs stand apart in the source and are kept apart here.
Key:
[1] = test system: TS/A (ER+, Her2−) murine mammary cancer cells; experiment: MTT cell viability assay, TS/A cells; format: cell-based; details: Mus musculus, 24 h, read-out: IC50 on cell viability, TS/A (ER+, Her2−)
Experimental: (§1) Normal or cancer cells (2×10^3 to 1×10^4 cells/well) were seeded in 96-well plate for overnight and treated with different compounds for 24 h to 72 h. Cells growth were determined by MTT-based colorimetric assays according to. Viability of the test cells treated with vehicle (0.5% DMSO) only was defined as 100% viable. Survival of cells after treatment with DETDs was calculated using the following formula: viable cell number (%)=OD570 (treated cell culture)/OD570 (vehicle control)×100.
(§2) Sixty DETDs were derived from parental compound […] and tested for anti-breast cancer cell activity.

[2] = test system: MDA-MB-231 (ER−, PR−, Her2−) human breast cancer cells; experiment: MTT cell viability assay, MDA-MB-231 cells; format: cell-based; details: Homo sapiens, MDA-MB-231, 24 h, read-out: IC50 on cell viability, MDA-MB-231 (ER−, PR−, Her2−)
Experimental: as §1, §2

[3] = test system: MCF-7 (ER+, Her2−) human breast cancer cells; experiment: MTT cell viability assay, MCF-7 cells; format: cell-based; details: MCF7, 24 h, read-out: IC50 on cell viability, MCF-7 (ER+, Her2−)
Experimental: as §1, §2

[4] = test system: M10 normal mammary epithelial cells; experiment: MTT cell viability assay, M10 normal cells; format: cell-based, human; details: Homo sapiens, Epithelial cell, 24 h
Experimental: as §1, §2

B16-F10 (NRAS mutation) = experiment: MTT cell viability assay, B16-F10 melanoma; format: cell-based; details: Mus musculus, B16-F10, 24 h, read-out: IC50 on cell viability, B16-F10 (NRAS mutation)
Experimental: as §1
(§3) Several genes are involved in melanoma development and pathology; specifically, mutation in V-raf murine sarcoma viral oncogene homolog B1 (B-RAF) occurs approximately 50-60% and in neuroblastoma RAS viral oncogene homolog (N-RAS) occurs about 30% of malignant melanomas. A spectrum of wild-type or mutated melanoma cell lines including B16-F10, MeWo, A375, A2058, HTB-68, and melanocyte were used to study anti-melanoma cell proliferation activity of parental phytocompound DET and newly synthesized DETDs.

[5] = test system: MeWo (No NRAS or BRAF mutation); experiment: MTT cell viability assay, MeWo melanoma; format: cell-based, human; details: Homo sapiens, MeWo, 24 h
Experimental: as §1, §3

HTB-68 (NRAS mutation) = experiment: MTT cell viability assay, HTB-68 melanoma; format: cell-based, human; details: Homo sapiens, 24 h
Experimental: as §1, §3

A2058 (BRAF mutation) = experiment: MTT cell viability assay, A2058 melanoma; format: cell-based, human; details: Homo sapiens, A2058, 24 h
Experimental: as §1, §3

A375 (BRAF mutation) = experiment: MTT cell viability assay, A375 melanoma; format: cell-based, human; details: Homo sapiens, A-375, 24 h, read-out: IC50 on cell viability, A375 (BRAF mutation)
Experimental: as §1, §3
To investigate whether or not DETD-35 show synergism with PLX4032 against A375 melanoma cells, we performed anti-proliferation assay using MTT reagent to obtain IC50 of each compound. […] The synergistic effect was quantified by combination index (CI) analysis as stated above.

[6] = test system: Melanocyte (Normal cells); experiment: MTT cell viability assay, normal melanocytes; format: cell-based, human; details: Homo sapiens, Melanocyte, 24 h
Experimental: as §1, §3

[7] = test system: RAW264.7 (normal macrophage); experiment: MTT cell viability assay, RAW264.7 macrophages; format: cell-based, mouse; details: Mus musculus, RAW264.7, 24 h
Experimental: as §1
(§4) Marcophages (2×10^5 cells/well in 96-well plate) were treated with compounds for 1 h, then incubated further for 24 h with or without the presence of […] LPS in the cultural medium. Nitrite levels in cell culture medium were determined by the Griess reaction method. In parallel to the Griess assays, macrophage cell viabilities were determined using the MTT based colorimetric assay.

[8] = test system: LPS-induced nitric oxide (NO) production in RAW 264.7 cells; experiment: Nitric oxide production in LPS-stimulated macrophages (Griess); format: cell-based, mouse; details: Mus musculus; LPS-stimulated RAW264.7, nitrite 24 h after LPS
Experimental: as §4
LPS from the outer membrane of Gram-negative bacteria can induce mRNA or protein levels of inducible nitric oxide synthase (iNOS), which catalyzes oxidative deamination of L-arginine to produce nitric oxide (NO). Once NO is predominantly produced, it interacts with superoxide anion and generates highly reactive oxidants resulting in cellular inflammation, DNA, protein and tissue damages, carcinogenesis, and antiapoptosis. We used in vitro LPS stimulated inflammation in RAW264.7 cell system to evaluate the effect of DET and its derivatives DETDs on NO production by determination of nitrite level (equivalent to NO level) in culture medium 24 h after LPS treatment.

Compound | IC50 [1] [µM] | IC50 [2] [µM] | IC50 [3] [µM] | IC50 [4] [µM] | IC50 (B16-F10 (NRAS mutation); 24 h) [µM] | IC50 [5] [µM] | IC50 (HTB-68 (NRAS mutation)) [µM] | IC50 (A2058 (BRAF mutation)) [µM] | IC50 (A375 (BRAF mutation); 24 h, MTT) [µM] | IC50 [6] [µM] | IC50 [7] [µM] | IC50 [8] [µM] | IC50 (B16-F10 (NRAS mutation)) [µM] | IC50 (A375 (BRAF mutation)) [µM]
C=C1C(=O)OC2CC3=C[C@@H](C/C(C)=C/C(OC(=O)/C=C/c4ccc(C)cc4)[C@H]12)OC3=O (stereo partly drawn) [DETD-27] | 2.4 | 3.6 | 3.7 | > 7.5 | 4.8 | > 10 | > 10 | > 10 | > 10 | > 10 | > 10 | 1.9 | – | –
C=C1C(=O)OC2CC3=C[C@@H](C/C(C)=C/C(OC(=O)/C=C/c4ccco4)[C@H]12)OC3=O (stereo partly drawn) [DETD-29] | 2.2 | 4.9 | 4.1 | > 7.5 | 6.7 | > 10 | > 10 | > 10 | > 10 | > 10 | > 10 | 1.6 | – | –
C=C1C(=O)OC2CC3=C[C@@H](C/C(C)=C/C(OC(=O)c4ccccc4)[C@H]12)OC3=O (stereo partly drawn) [DETD-31] | 2 | 4.5 | 5.9 | > 7.5 | 2.9 | > 10 | > 10 | > 10 | 4.3 | > 10 | > 10 | 3.2 | – | –
C=C1C(=O)OC2CC3=C[C@@H](C/C(C)=C/C(OC(=O)C4CC4)[C@H]12)OC3=O (stereo partly drawn) [DETD-36] | 2.4 | 8.7 | 7.1 | > 7.5 | 9.4 | > 10 | > 10 | > 10 | 9.2 | > 10 | > 10 | 1.8 | – | –
C=C1C(=O)OC2CC3=C[C@@H](C/C(C)=C/C(OC(=O)C4CCCC4)[C@H]12)OC3=O (stereo partly drawn) [DETD-37] | 3 | 6.7 | 6.2 | > 7.5 | 3.8 | > 10 | > 10 | > 10 | > 10 | > 10 | > 10 | 2 | – | –
C=C1C(=O)OC2CC3=C[C@@H](C/C(C)=C/C(OC(=O)c4cc5ccccc5o4)[C@H]12)OC3=O (stereo partly drawn) [DETD-40] | 3.1 | 4.9 | 6.1 | > 7.5 | 4.3 | > 10 | > 10 | > 10 | > 10 | > 10 | > 10 | 4.5 | – | –
C=C1C(=O)OC2CC3=C[C@@H](C/C(C)=C/C(OC(=O)c4cc5ccccc5s4)[C@H]12)OC3=O (stereo partly drawn) [DETD-41] | 2.8 | 5 | 5.3 | > 7.5 | 5.5 | > 10 | > 10 | > 10 | > 10 | > 10 | > 10 | 3.5 | – | –
C=C1C(=O)OC2CC3=C[C@@H](C/C(C)=C/C(OC(=O)/C=C/c4cccs4)[C@H]12)OC3=O (stereo partly drawn) [DETD-42] | 2.7 | 6 | 4.5 | > 7.5 | – | > 10 | > 10 | > 10 | – | > 10 | > 10 | 2.9 | 5.5 | > 10
C=C1C(=O)OC2CC3=C[C@@H](C/C(C)=C/C(OC(=O)Cc4ccccc4)[C@H]12)OC3=O (stereo partly drawn) [DETD-43] | 2.4 | 6.9 | > 7.5 | > 7.5 | – | > 10 | 8.2 | 8.7 | – | > 10 | > 10 | 3.5 | 7.4 | 3.6
C=C1C(=O)OC2CC3=C[C@@H](C/C(C)=C/C(OC(=O)Cc4ccc(OC)cc4)[C@H]12)OC3=O (stereo partly drawn) [DETD-44] | 2.2 | 7 | > 7.5 | > 7.5 | 7.3 | > 10 | 7.6 | 8.5 | 3.5 | > 10 | > 10 | 3.4 | – | –
C=C1C(=O)OC2CC3=C[C@@H](C/C(C)=C/C(OC(=O)Cc4ccc5cc(OC)ccc5c4)[C@H]12)OC3=O (stereo partly drawn) [DETD-46] | 3.8 | 7.3 | > 7.5 | > 7.5 | 5.4 | 6.3 | 4.5 | 5 | 2.6 | > 10 | > 10 | 3.1 | – | –
C=C1C(=O)OC2CC3=C[C@@H](C/C(C)=C/C(OC(=O)/C=C/c4cccc(OC(F)(F)F)c4)[C@H]12)OC3=O (stereo partly drawn) [DETD-47] | > 7.5 | > 15 | > 7.5 | > 7.5 | > 10 | > 10 | > 10 | > 10 | 8.3 | > 10 | > 10 | > 10 | – | –

Reference: US10238631B2, “Sesquiterpene derivatives and their use in inflammation or cancer treatment” (Academia Sinica, priority 2014, dated 2019)
